Measured values from paper PMC10951960, “CGP7930 - An allosteric modulator of GABABRs, GABAARs and inwardly-rectifying potassium channels” (Neuropharmacology, 2023).

Biological target: T1, Kir3.1/3.2 channels (GIRK) (Homo sapiens, UniProt P48051+P48549)
T1 construct: expressed in transfected cells
T1 sequence (P48549 1-501): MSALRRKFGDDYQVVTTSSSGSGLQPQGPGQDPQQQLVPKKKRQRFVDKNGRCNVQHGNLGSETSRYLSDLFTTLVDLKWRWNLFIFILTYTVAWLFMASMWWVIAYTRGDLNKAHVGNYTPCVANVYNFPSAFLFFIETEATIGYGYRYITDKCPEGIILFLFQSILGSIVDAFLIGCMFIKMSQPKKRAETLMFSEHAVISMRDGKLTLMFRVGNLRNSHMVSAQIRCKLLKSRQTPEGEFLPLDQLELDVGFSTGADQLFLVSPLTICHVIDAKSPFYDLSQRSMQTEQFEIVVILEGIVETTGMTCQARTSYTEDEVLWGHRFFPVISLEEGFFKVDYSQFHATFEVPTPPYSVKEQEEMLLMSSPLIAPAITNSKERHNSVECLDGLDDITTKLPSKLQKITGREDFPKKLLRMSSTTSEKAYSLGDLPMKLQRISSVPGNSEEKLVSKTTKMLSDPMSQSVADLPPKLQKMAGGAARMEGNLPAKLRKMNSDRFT
T1 sequence (P48051 1-423): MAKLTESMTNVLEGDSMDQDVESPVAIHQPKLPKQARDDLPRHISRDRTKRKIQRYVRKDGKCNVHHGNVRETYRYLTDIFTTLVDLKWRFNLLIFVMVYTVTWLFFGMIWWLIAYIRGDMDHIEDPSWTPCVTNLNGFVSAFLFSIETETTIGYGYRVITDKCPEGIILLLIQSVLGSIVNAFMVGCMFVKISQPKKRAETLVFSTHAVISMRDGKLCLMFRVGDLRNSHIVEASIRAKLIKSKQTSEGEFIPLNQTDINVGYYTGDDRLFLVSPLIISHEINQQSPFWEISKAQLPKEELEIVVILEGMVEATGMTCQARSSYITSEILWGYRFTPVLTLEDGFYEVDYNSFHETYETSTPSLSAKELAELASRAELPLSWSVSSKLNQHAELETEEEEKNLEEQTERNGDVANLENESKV
Test: block of basally-active K+ currents in GIRK cells not expressing GABABRs, high K+ Krebs
Type: cell-based
Procedure: HEK-293T cells were maintained in Dulbecco's modified Eagle's medium containing 10% (v/v) fetal calf serum (FCS), 100 U/ml penicillin-G, 100 μg/ml streptomycin in 95% air/5% CO2 at 37 °C. All cell culture reagents were acquired from ThermoFisher unless otherwise stated. Cells were plated on 22 mm glass coverslips (VWR, UK), coated with poly-L-lysine (Sigma) and transfected using a calcium phosphate method with cDNAs for eGFP, α, β, γ or δ, in a 1:1:1:1 ratio ([Hannan et al., 2020]) applied 1–2 h after cell plating. HEK-293 cells stably expressing Kir3.1/3.2 channels ([Leaney et al., 2000]) were grown in a selection media containing G418 (0.5 mg/ml) and Zeocin (0.4 mg/ml) and passaged, and plated, as for the HEK-293T cells above. These cells are referred to as GIRK cells throughout the text and were transiently transfected with cDNAs for eGFP, GABAB R1a and R2 in a 1:1:5 ratio applied 1–2 h after cell plating.
GABA-activated currents were recorded 24 h after transfection of HEK-293T or GIRK cells. Spontaneous inhibitory postsynaptic currents (sIPSCs) were recorded from cultured hippocampal neurons at 12–17 days in vitro (DIV). Cells were superfused with a saline solution containing (mM): 140 NaCl, 4.7 KCl, 2.52 CaCl2, 1.2 MgCl2, 11 glucose, and 5 HEPES; pH 7.4. sIPSCs from hippocampal culture neurons were recorded in the presence of 2 mM kynurenic acid to block excitatory neurotransmission. […] GABABR-activated K^+ currents in cultured neurons were recorded in the additional presence of 2 mM kynurenic acid and 20 μM picrotoxin.
Borosilicate glass electrodes (3–5 MΩ) were filled with a K^+-based internal solution for recording GIRK currents containing (mM): 120 KCl, 2 MgCl2, 11 EGTA, 30 KOH, 10 HEPES, 1 CaCl2, 1 GTP, 2 ATP, 14 creatine phosphate, pH 7.0. GABAAR currents and sIPSCs were recorded with a Cs-based internal solution containing (mM): 120 CsCl, 1 MgCl2, 11 EGTA, 30 KOH, 10 HEPES, 1 CaCl2, and 2 K2ATP; pH 7.2. […]

CC(C)(CO)Cc1cc(C(C)(C)C)c(O)c(C(C)(C)C)c1 [CGP7930, 3-(3′,5′-Di-tert-butyl-4′-hydroxy) phenyl-2,2-dimethylpropanol]
effect on GIRK-mediated inwardly-rectifying currents (I–V, −20 to −120 mV) (10 or 100 μM): inhibition
threshold for whole-cell outward currents (GIRK cells without GABABRs, −60 mV, high K+): 0.3 µM
effect on additional outward rectification (depolarising steps) (GIRK cells, I–V): inhibited
